Measured values: ChEMBL document CHEMBL5154899, “Spiropyrimidinetrione DNA Gyrase Inhibitors with Potent and Selective Antituberculosis Activity” (J Med Chem, 2022)
≈ marks a conversion by molar mass, not a printed value.

Tests used:
[1] = test system: Mycobacterium tuberculosis; assay: microbe, parasite or virus in culture; conditions: H37Rv, 192 h
Description: Antibacterial activity against Mycobacterium tuberculosis H37Rv assessed as inhibition of bacterial growth measured after 8 days by Alamar blue reagent based broth microdilution method

DNA gyrase = DNA gyrase (Staphylococcus aureus, UniProt P0A0K8+P20831)
[2] = molecular target: DNA gyrase subunit A/DNA gyrase subunit B (Mycobacterium tuberculosis (strain ATCC 25618 / H37Rv), UniProt P9WG45+P9WG47); assay: Inhibition of Mycobacterium tuberculosis H37Rv DNA gyrase
Escherichia coli = assay: microbe, parasite or virus in culture; conditions: ATTC 25922, 192 h
[3] = test system: Mycobacterium tuberculosis; assay: microbe, parasite or virus in culture; conditions: H37Rv, 264 h
Description: Antibacterial activity against wild type Mycobacterium tuberculosis H37Rv assessed as inhibition of bacterial growth incubated for 11 days

[4] = test system: Mycobacterium tuberculosis; assay: microbe, parasite or virus in culture; conditions: H37Rv, 264 h; remark: listed apart in the source
Description: Antibacterial activity against Mycobacterium tuberculosis H37Rv gyrA -FDASTetON-1 hypomorph assessed as inhibition of bacterial growth incubated for 11 days

Staphylococcus aureus = assay: microbe, parasite or virus in culture; conditions: ATTC 25923, 192 h

DNA gyrase subunit A/DNA gyrase subunit B, sequence (P9WG45 whole entry): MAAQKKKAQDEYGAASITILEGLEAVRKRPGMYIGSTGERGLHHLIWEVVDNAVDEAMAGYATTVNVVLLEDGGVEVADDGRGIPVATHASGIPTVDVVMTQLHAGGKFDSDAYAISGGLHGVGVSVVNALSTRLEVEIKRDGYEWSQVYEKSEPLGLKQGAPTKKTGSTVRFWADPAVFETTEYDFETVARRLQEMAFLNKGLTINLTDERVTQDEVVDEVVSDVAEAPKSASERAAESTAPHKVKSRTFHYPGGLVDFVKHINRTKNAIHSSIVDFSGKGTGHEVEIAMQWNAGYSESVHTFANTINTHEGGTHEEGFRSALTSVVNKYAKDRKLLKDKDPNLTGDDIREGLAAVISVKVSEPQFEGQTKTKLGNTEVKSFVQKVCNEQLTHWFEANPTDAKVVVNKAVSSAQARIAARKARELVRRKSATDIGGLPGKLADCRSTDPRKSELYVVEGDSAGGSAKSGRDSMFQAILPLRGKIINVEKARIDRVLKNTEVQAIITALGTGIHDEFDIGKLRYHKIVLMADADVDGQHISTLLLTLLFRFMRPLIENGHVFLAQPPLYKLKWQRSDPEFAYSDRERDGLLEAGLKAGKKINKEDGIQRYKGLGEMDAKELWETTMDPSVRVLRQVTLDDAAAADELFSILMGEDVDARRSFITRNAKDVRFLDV
DNA gyrase subunit A/DNA gyrase subunit B, sequence (P9WG47 whole entry): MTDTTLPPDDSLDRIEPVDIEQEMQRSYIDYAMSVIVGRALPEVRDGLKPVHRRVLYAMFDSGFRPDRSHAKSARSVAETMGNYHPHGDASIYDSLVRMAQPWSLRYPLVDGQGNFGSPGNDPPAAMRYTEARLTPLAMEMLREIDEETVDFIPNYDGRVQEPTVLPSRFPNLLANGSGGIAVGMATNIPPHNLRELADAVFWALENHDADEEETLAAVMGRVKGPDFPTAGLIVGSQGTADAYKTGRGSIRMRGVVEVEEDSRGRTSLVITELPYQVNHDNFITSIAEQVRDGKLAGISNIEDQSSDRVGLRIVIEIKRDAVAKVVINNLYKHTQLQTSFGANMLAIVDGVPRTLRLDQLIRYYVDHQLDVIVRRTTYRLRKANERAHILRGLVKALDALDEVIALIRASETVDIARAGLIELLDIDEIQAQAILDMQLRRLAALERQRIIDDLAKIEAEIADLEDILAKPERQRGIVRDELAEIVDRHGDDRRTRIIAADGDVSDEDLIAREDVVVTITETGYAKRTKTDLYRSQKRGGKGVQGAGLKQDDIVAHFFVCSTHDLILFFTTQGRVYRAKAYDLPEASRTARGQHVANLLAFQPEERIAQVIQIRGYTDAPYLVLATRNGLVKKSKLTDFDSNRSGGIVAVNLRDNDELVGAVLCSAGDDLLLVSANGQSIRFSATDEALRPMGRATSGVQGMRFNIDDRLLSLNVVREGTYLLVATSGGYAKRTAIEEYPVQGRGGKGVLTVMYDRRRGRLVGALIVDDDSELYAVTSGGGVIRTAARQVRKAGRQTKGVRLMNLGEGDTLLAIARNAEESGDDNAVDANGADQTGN
DNA gyrase, sequence (P0A0K8 whole entry): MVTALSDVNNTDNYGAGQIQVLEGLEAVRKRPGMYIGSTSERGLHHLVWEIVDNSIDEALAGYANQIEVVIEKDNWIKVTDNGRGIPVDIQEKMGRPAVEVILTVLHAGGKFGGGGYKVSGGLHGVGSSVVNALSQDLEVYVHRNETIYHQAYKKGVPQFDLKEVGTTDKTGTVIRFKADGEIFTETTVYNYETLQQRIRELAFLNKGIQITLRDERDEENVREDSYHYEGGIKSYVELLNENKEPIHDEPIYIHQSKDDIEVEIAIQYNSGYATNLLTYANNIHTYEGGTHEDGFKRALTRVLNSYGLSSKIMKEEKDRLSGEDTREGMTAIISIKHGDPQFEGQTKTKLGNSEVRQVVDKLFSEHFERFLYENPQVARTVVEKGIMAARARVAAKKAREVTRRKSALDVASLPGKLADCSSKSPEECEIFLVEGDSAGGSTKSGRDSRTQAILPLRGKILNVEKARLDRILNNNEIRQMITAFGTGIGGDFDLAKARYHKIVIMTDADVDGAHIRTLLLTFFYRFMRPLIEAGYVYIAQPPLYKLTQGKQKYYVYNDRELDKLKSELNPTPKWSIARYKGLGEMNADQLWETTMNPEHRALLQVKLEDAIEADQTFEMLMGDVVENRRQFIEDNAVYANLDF
DNA gyrase, sequence (P20831 whole entry): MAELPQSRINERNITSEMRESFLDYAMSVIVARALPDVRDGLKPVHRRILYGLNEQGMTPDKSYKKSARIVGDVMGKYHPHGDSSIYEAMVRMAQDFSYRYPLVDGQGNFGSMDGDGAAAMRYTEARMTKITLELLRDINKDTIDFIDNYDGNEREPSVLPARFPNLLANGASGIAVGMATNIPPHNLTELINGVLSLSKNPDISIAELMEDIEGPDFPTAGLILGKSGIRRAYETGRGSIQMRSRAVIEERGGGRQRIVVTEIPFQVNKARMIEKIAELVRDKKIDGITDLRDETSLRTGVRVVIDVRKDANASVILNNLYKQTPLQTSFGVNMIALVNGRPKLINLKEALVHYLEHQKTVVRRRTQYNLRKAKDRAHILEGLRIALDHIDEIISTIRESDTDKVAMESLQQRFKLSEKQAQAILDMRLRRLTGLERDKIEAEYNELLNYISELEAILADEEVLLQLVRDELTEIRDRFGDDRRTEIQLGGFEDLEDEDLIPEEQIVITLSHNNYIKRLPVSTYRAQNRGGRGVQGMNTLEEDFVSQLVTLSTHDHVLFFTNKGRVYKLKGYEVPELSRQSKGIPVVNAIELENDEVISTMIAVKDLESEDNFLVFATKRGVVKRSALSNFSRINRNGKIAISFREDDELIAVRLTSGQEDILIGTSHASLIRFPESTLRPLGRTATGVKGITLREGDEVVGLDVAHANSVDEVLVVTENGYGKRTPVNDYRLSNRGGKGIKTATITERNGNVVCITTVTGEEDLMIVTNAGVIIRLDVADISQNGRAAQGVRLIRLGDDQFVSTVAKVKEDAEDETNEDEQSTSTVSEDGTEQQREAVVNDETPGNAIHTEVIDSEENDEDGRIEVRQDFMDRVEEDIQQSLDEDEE

Structure (SMILES) | MIC [1] | IC50 (DNA gyrase) | IC50 [2] | MIC (Escherichia coli) | MIC50 [3] | MIC99 [3] | MIC50 [4] | MIC99 [4] | MIC (Staphylococcus aureus)
C[C@@H]1CN2c3c(cc4c(-n5cncn5)noc4c3F)CC3(C(=O)NC(=O)NC3=O)[C@H]2[C@H](C)O1 | 0.24 µM (≈ 0.109 µg/mL) | 1.7 µM | 18 µM | 2 µM (≈ 0.911 µg/mL) | 1.8 µM (≈ 0.82 µg/mL) | 3.8 µM (≈ 1.73 µg/mL) | 0.26 µM (≈ 0.118 µg/mL) | 0.65 µM (≈ 0.296 µg/mL) | 
C[C@@H]1CN2c3c(cc4c(-n5cncn5)noc4c3F)CC3(C(=O)NC(=O)NC3=O)[C@H]2[C@H](C)N1C#N | 0.98 µM (≈ 0.47 µg/mL) |  |  | 63 µM (≈ 30.2 µg/mL) |  |  |  |  | 16 µM (≈ 7.67 µg/mL)
C[C@@H]1CN2c3c(cc4c(OCC[C@@H]5CCC(=O)N5)noc4c3F)CC3(C(=O)NC(=O)NC3=O)[C@H]2[C@H](C)O1 | 3.9 µM (≈ 2.01 µg/mL) |  |  | > 125 µM |  |  |  |  | 31 µM (≈ 16 µg/mL)
CN[C@H]1CCN(c2noc3c(F)c4c(cc23)CC2(C(=O)NC(=O)NC2=O)[C@H]2[C@H](C)O[C@H](C)CN42)C1 | 63 µM (≈ 30.6 µg/mL) |  |  | 125 µM (≈ 60.8 µg/mL) |  |  |  |  | 125 µM (≈ 60.8 µg/mL)
C[C@@H]1CN2c3c(cc4c(N5CC[C@H](N)C5)noc4c3F)CC3(C(=O)NC(=O)NC3=O)[C@H]2[C@H](C)O1 | 63 µM (≈ 29.8 µg/mL) |  | 34 µM | 125 µM (≈ 59.1 µg/mL) |  |  |  |  | 125 µM (≈ 59.1 µg/mL)
C[C@@H]1CN2c3c(cc4c(N5CCC[C@H](O)C5)noc4c3F)CC3(C(=O)NC(=O)NC3=O)[C@H]2[C@H](C)O1 | 16 µM (≈ 7.8 µg/mL) |  |  |  |  |  |  |  | 94 µM (≈ 45.8 µg/mL)
C[C@@H]1CN2c3c(cc4c(N5CC[C@@H](O)C5)noc4c3F)CC3(C(=O)NC(=O)NC3=O)[C@H]2[C@H](C)N1C#N |  |  |  |  |  |  |  |  | > 125 µM
C[C@@H]1CN2c3c(cc4c(N5C(=O)OC[C@@H]5C)noc4c3F)CC3(C(=O)NC(=O)NC3=O)[C@H]2[C@H](C)N1C#N | 3.9 µM (≈ 1.99 µg/mL) |  |  | 3.9 µM (≈ 1.99 µg/mL) |  |  |  |  | 1 µM (≈ 0.511 µg/mL)
CO[C@H]1CCN(c2noc3c(F)c4c(cc23)CC2(C(=O)NC(=O)NC2=O)[C@H]2[C@H](C)O[C@H](C)CN42)C1 | 31 µM (≈ 15.1 µg/mL) |  | 77 µM | > 125 µM |  |  |  |  | > 125 µM
C[C@@H]1CN2c3c(cc4c(N5CC[C@H](O)C5)noc4c3F)CC3(C(=O)NC(=O)NC3=O)[C@H]2[C@H](C)N1C#N | 7.8 µM (≈ 3.88 µg/mL) | 3.1 µM |  | > 125 µM | 5.35 µM (≈ 2.66 µg/mL) | 10.3 µM (≈ 5.12 µg/mL) | 1.75 µM (≈ 0.871 µg/mL) | 5.05 µM (≈ 2.51 µg/mL) | 
C[C@@H]1CN2c3c(cc4c(OC[C@@H]5CCC(=O)O5)noc4c3F)CC3(C(=O)NC(=O)NC3=O)[C@H]2[C@H](C)O1 | 2 µM (≈ 1 µg/mL) |  |  | > 125 µM |  |  |  |  | 3.9 µM (≈ 1.96 µg/mL)
C[C@@H]1CN2c3c(cc4c(OC[C@H]5CCC(=O)N5)noc4c3F)CC3(C(=O)NC(=O)NC3=O)[C@H]2[C@H](C)O1 | > 125 µM |  |  |  |  |  |  |  | 
Cc1nnc(-c2noc3c(F)c4c(cc23)CC2(C(=O)NC(=O)NC2=O)[C@H]2[C@H](C)N(C#N)[C@H](C)CN42)o1 | 1.5 µM (≈ 0.742 µg/mL) |  |  | > 125 µM |  |  |  |  | > 125 µM
Cc1nnc(-c2noc3c(F)c4c(cc23)CC2(C(=O)NC(=O)NC2=O)[C@H]2[C@H](C)[C@@H](O)[C@H](C)CN42)o1 | 16 µM (≈ 7.75 µg/mL) |  |  | > 250 µM |  |  |  |  | > 250 µM
C[C@@H]1CN2c3c(cc4c(N5C(=O)OC[C@@H]5C)noc4c3F)CC3(C(=O)NC(=O)NC3=O)[C@H]2[C@H](C)N1CC#N | > 125 µM |  |  | > 125 µM |  |  |  |  | > 125 µM
C[C@@H]1CN2c3c(cc4c(N5CC[C@H](CO)C5)noc4c3F)CC3(C(=O)NC(=O)NC3=O)[C@H]2[C@H](C)O1 | 16 µM (≈ 7.8 µg/mL) |  | 18 µM | > 125 µM |  |  |  |  | > 125 µM
C[C@@H]1CN2c3c(cc4c(OC[C@H]5CCC(=O)O5)noc4c3F)CC3(C(=O)NC(=O)NC3=O)[C@H]2[C@H](C)O1 | 3.9 µM (≈ 1.96 µg/mL) |  |  | > 250 µM |  |  |  |  | > 250 µM
C[C@@H]1CN2c3c(cc4c(N5CC[C@H](C#N)C5)noc4c3F)CC3(C(=O)NC(=O)NC3=O)[C@H]2[C@H](C)O1 | 4 µM (≈ 1.93 µg/mL) |  | 10 µM | 31 µM (≈ 15 µg/mL) |  |  |  |  | > 125 µM
C[C@@H]1CN2c3c(cc4c(N5C(=O)OC[C@@H]5C)noc4c3F)CC3(C(=O)NC(=O)NC3=O)[C@H]2[C@H](C)N1 | > 125 µM |  |  | 31 µM (≈ 15.1 µg/mL) |  |  |  |  | 63 µM (≈ 30.6 µg/mL)
C[C@@H]1CN2c3c(cc4c(OC[C@@H]5CCC(=O)N5C)noc4c3F)CC3(C(=O)NC(=O)NC3=O)[C@H]2[C@H](C)O1 | 3.9 µM (≈ 2.01 µg/mL) |  |  | 63 µM (≈ 32.5 µg/mL) |  |  |  |  | 63 µM (≈ 32.5 µg/mL)
C[C@@H]1CN2c3c(cc4c(N5CC[C@@](C)(O)C5)noc4c3F)CC3(C(=O)NC(=O)NC3=O)[C@H]2[C@H](C)O1 | > 250 µM |  |  | > 250 µM |  |  |  |  | > 250 µM
